Results on ten compounds are retold here after US20260209193A1, “NOVEL INHIBITORS OF DNA DAMAGE RESPONSES FOR CANCER THERAPY” (The Regents of the University of California, priority 2022, published 2026).

Molecules are shown by their SMILES.

Experiment [1] has as its target T1, ATR (Homo sapiens, UniProt Q13535).
T1 construct: endogenous in cells; host or cells: PC3, C4-2B/MR, SUM149PT-BRCA1rev, UWB1.289+BRCA1, MDA-MB-231
The experiment can be described thus: ATR-mediated signaling: phosphorylation of Rad17 Ser 645 and CHK1 Ser 345 in cells. It counts as cell-based. To be noted: compared to JC099. Here is the method:
PARP inhibitor-resistant cells are increasingly dependent on ATR for survival, and ATR inhibition disrupts restored HR and fork protection pathways in PARP inhibitor resistant BRCA-deficient cancer cells. For ATR kinase in vitro assays, ATR was immunoprecipitated with 3 μg of anti-ATR antibody (Bethyl Laboratories, A300-137A) from 1 mg of cell lysate. […] The IC50 was determined by the enzyme profiling service of Eurofins Cerep (France). […] The phosphorylation of CHK1 at Ser 345 sites was used as a bio-marker of ATR-mediated signaling pathway. The phosphorylation of Rad17 at Ser 645, which is a substrate of ATR, was also examined.
ATR inhibition was assessed in C4-2B/MR cells. Considering ATM is a homologous protein of ATR, we also detected the effect of JC046 analogs on the phosphorylation of KAP1 at Ser 824 and CHK2 at Thr 68 sites, which were used as markers of ATM signaling pathway.

Experiment [2] concerns the target T2, PARP1 (Homo sapiens, UniProt P09874).
T2 construct: endogenous in cells; host or cells: PC3
The experiment can be described thus: PARP1 trapping, chromatin fractionation (chromatin-bound fraction). It counts as cell-based. To be noted: PC3 cells. From the text: The trapped PARP1 forms a toxic lesion and stalls the progress of replication forks. The replication fork collapses in BRCA1/2-deficient cancer cells, and then results in cell death. […] Six cancer cell lines were used in this assay, including two breast cancer cell lines, BRCA1-mutunt SUM149PT-BRCA1mut and SUM149PT-BRCA1rev where deleterious BRCA1 mutation is reverted to form a functional BRCA1, two ovarian cancer cell lines, BRCA1-null UWB1.289 and UWB1.289+BRCA1, a stable cell line in which wild-type BRCA1 function has been restored, and two prostate cancer cell lines, enzalutamide resistant C4-2B/MR which is homologous recombination (HR)-deficient due to Rad51 mutation, and enzalutamide insensitive PC3 which is HR-proficient.

T2 sequence (P09874 whole entry, species assumed): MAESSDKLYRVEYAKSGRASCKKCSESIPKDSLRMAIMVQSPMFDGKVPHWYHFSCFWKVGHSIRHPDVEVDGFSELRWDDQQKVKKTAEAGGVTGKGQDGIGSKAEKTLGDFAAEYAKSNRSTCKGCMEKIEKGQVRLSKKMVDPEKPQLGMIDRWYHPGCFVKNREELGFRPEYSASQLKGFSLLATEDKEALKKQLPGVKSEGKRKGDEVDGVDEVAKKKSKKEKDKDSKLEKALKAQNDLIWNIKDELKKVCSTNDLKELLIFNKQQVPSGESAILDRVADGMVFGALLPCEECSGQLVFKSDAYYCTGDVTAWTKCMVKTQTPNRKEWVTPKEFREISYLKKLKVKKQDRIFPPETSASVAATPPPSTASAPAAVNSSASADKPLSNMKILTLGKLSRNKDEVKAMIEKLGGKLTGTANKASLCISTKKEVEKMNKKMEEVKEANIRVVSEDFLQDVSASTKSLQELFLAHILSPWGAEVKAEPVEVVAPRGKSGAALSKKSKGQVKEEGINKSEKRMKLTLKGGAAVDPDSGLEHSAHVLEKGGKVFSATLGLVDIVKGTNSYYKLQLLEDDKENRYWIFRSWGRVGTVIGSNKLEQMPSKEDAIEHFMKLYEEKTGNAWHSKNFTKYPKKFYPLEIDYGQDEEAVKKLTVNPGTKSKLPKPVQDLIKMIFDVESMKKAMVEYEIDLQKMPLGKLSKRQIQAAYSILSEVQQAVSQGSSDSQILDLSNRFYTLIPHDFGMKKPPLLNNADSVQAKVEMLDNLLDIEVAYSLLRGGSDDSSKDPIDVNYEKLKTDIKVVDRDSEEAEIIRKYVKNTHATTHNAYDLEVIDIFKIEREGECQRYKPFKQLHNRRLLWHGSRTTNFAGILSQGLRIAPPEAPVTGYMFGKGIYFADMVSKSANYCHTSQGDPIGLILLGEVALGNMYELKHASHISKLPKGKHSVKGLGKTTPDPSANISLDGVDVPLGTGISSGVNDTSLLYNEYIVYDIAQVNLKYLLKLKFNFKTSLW
T1 sequence (Q13535 whole entry): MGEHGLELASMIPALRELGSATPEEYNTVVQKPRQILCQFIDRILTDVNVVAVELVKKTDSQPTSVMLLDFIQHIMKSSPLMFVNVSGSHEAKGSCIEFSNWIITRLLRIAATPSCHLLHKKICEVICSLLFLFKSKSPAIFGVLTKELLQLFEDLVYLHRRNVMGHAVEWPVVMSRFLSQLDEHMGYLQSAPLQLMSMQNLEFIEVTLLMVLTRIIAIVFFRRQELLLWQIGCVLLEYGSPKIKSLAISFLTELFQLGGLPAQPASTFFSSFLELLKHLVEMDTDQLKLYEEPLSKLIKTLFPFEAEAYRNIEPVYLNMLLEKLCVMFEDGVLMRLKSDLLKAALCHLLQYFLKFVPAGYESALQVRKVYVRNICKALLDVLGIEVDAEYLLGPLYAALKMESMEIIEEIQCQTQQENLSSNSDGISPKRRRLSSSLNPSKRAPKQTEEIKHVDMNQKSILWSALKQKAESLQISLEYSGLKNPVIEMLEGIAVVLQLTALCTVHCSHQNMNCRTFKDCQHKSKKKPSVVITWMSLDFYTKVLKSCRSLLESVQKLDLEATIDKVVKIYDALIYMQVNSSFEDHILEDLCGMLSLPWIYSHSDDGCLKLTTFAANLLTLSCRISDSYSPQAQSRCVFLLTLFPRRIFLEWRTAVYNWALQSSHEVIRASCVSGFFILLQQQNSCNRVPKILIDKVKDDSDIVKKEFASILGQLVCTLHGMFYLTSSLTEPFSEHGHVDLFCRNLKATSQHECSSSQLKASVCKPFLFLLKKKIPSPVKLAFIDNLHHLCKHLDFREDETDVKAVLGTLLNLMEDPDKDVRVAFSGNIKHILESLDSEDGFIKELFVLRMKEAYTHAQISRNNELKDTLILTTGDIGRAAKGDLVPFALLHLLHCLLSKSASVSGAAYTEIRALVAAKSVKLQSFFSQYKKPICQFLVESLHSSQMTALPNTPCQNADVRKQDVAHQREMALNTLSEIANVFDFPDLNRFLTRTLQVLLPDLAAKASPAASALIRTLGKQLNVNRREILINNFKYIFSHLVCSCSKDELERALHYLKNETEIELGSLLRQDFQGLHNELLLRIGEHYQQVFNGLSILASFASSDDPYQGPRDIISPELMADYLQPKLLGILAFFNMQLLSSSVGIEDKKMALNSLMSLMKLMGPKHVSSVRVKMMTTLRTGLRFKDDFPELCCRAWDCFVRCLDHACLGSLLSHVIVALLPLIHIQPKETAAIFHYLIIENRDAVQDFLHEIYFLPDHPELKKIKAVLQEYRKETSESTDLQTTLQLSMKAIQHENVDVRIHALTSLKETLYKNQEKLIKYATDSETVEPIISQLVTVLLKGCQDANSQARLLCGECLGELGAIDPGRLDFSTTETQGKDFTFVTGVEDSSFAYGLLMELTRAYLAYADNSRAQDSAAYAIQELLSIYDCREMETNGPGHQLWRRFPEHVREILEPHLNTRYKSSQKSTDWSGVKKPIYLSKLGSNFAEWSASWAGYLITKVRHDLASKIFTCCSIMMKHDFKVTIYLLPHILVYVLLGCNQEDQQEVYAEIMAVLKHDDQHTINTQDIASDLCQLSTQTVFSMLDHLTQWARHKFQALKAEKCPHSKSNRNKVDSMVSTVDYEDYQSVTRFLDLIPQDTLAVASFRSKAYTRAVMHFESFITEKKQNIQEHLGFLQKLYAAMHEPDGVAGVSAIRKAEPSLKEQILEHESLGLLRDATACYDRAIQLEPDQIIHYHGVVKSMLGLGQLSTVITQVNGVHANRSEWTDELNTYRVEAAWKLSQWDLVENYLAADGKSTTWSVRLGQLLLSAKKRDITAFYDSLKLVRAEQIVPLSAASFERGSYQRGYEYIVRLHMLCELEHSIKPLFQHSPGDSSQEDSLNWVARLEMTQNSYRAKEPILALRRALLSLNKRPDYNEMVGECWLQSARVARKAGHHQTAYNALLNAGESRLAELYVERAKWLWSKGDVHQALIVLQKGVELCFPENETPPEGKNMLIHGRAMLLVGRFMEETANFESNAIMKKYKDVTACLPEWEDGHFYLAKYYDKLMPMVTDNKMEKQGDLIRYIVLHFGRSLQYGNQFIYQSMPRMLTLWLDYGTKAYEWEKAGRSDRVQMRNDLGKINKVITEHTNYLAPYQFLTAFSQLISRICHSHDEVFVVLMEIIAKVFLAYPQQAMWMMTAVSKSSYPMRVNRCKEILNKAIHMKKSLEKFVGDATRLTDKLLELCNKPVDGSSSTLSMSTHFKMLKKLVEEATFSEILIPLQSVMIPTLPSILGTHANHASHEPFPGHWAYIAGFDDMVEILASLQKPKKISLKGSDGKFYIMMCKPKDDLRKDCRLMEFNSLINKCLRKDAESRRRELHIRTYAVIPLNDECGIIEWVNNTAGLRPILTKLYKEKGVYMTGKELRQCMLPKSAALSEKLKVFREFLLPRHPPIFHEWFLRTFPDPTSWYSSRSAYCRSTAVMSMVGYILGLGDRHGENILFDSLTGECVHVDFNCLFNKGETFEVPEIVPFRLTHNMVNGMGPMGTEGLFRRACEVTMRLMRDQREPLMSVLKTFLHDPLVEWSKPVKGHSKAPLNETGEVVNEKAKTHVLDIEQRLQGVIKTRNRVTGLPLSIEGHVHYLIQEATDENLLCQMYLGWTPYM
T1 sequence (Q8WXE1 whole entry partner): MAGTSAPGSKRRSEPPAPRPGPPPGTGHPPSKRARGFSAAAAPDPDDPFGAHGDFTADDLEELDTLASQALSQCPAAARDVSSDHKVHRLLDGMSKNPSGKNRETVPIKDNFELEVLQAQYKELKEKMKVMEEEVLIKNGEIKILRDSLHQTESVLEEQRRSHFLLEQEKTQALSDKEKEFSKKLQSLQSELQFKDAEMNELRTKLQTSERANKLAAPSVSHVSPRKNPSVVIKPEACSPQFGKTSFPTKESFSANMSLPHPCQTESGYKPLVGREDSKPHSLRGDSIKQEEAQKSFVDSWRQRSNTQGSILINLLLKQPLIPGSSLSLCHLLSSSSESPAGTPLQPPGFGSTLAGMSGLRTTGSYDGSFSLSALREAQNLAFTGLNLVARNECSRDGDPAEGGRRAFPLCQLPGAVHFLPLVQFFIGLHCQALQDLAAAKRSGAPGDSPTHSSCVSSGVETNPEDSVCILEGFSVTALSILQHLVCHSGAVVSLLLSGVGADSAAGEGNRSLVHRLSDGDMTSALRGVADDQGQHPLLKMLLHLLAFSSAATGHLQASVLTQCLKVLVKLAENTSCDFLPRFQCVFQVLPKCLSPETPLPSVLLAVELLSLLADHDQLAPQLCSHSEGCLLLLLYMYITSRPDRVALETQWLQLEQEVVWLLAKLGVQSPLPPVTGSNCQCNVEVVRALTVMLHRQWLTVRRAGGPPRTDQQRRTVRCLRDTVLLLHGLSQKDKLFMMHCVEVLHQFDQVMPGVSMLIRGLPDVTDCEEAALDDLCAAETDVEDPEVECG

In the case of `CCN1CCC[C@@H]1CNc1ccc(C(=O)NC2C/C(=C\c3ccc(F)c(F)c3)C(=O)/C(=C/c3ccc(F)c(F)c3)C2)cc1` (stereo partly drawn) [JCS066, N-(3,5-Bis((E)-3,4-difluorobenzylidene)-4-oxocyclohexyl)-4-((((R)-1-ethylpyrrolidin-2-yl)methyl)-amino)benzamide], the “ATR inhibition potency relative to JC099 (OLA- or UV-induced phosphorylation of Rad17 and CHK1)” value (“ATR inhibition potency relative to JC099” below) in experiment [1] is listed as “greater ATR inhibition potential”.

`O=C1/C(=C/c2ccc(F)c(F)c2)CC(NC(=O)c2ccc(OCCN3CCCCC3)nc2)C/C1=C\c1ccc(F)c(F)c1` (stereo not drawn) [JCS116, N-(3,5-Bis((E)-3,4-difluorobenzylidene)-4-oxocyclohexyl)-6-(2-(piperidin-1-yl)ethoxy)nicotinamide]: the “ATR inhibition potency relative to JC099” value in experiment [1] is reported as “less ATR inhibition potencies”.

`COCCN(CCOC)CCOc1ccc(C(=O)NC2C/C(=C\c3cc(F)c(F)c(OC)c3)C(=O)/C(=C/c3cc(F)c(F)c(OC)c3)C2)cc1` (stereo not drawn) [JCS153, N-(3,5-Bis((E)-3,4-difluoro-5-methoxybenzylidene)-4-oxocyclohexyl)-4-(2-(bis(2-methoxyethyl)ami-no)ethoxy)benzamide]: the “ATR inhibition potency relative to JC099” value in experiment [1] is on record as “greater ATR inhibition potential”.

For `CCN(CC)CCOc1ccc(C(=O)NC2C/C(=C\c3ccc(F)c(F)c3)C(=O)/C(=C/c3ccc(F)c(F)c3)C2)c(C)c1` (stereo not drawn) [JCS112, N-(3,5-Bis((E)-3,4-difluorobenzylidene)-4-oxocyclohexyl)-4-(2-(diethylamino)ethoxy)-2-methyl-benzamide], the “ATR inhibition potency relative to JC099” value in experiment [1] was “less ATR inhibition potencies”.

`CCc1ccc2c(c1)CCC1(CCN(CCOc3ccc(C(=O)NC4C/C(=C\c5ccc(F)c(F)c5)C(=O)/C(=C/c5ccc(F)c(F)c5)C4)cc3)CC1)O2` (stereo not drawn) [JCS078, N-(3,5-bis((E)-3,4-difluorobenzylidene)-4-oxocyclohexyl)-4-(2-(6-ethylspiro[chromane-2,4′-piperidin]-1′-yl)ethoxy)benzamide]: the “PARP1-trapping potency relative to JC099 (PARP1 in the chromatin-bound fraction)” value in experiment [2] is reported as “increased the accumulation of PARP1 in the chromatin-bound fraction than JC099”.

`O=C1/C(=C/c2ccc(F)c(F)c2)CC(NC(=O)c2ccc(NCCN3CCCCC3)cc2)C/C1=C\c1ccc(F)c(F)c1` (stereo not drawn) [JCS028, N-(3,5-Bis((E)-3,4-difluorobenzylidene)-4-oxocyclohexyl)-4-((2-(piperidin-1-yl)ethyl)amino)-benzamide]: the “PARP1 trapped on DNA lesions” value in experiment [2] (0.5 μM and 2 μM) was “trapped”; in experiment [2] (0.5 μM), “trapped”.

Turning to `O=C1/C(=C/c2ccc(F)c(F)c2)CC(NC(=O)c2ccc(NC(=O)N3CCN(C(=O)C4CC4)CC3)cc2)C/C1=C\c1ccc(F)c(F)c1` (stereo not drawn) [JCS057, N-(4-((3,5-bis((E)-3,4-difluorobenzylidene)-4-oxocyclohexyl)carbamoyl)phenyl)-4-(cyclopropanecarbonyl)piperazine-1-carboxamide], in experiment [2] (0.3 μM), the “PARP1 trapped on DNA lesions” value was “trapped”.

In the case of `O=C(CN1CCCC1=O)Nc1ccc(C(=O)NC2C/C(=C\c3ccc(F)c(F)c3)C(=O)/C(=C/c3ccc(F)c(F)c3)C2)cc1` (stereo not drawn) [JCS048, N-(3,5-bis((E)-3,4-difluorobenzylidene)-4-oxocyclohexyl)-4-(2-(2-oxopyrrolidin-1-yl)acetamido)benzamide], the “PARP1 trapped on DNA lesions” value in experiment [2] (0.3 μM) was “trapped”. Besides, in experiment [2], the “PARP1-trapping potency relative to JC099 (PARP1 in the chromatin-bound fraction)” value is recorded as “higher potency in PARP1-trapping”.

As to `CCN(CC)CCNc1ccc(C(=O)NC2C/C(=C\c3ccc(F)c(F)c3)C(=O)/C(=C/c3ccc(F)c(F)c3)C2)cc1` (stereo not drawn) [JCS070, N-(3,5-Bis((E)-3,4-difluorobenzylidene)-4-oxocyclohexyl)-4-((2-(diethylamino)ethyl)amino)benz-amide], the “PARP1-trapping potency relative to JC099 (PARP1 in the chromatin-bound fraction)” value in experiment [2] is “higher potency in PARP1-trapping”.

On to `O=C1/C(=C/c2ccc(F)c(F)c2)CC(NC(=O)c2ccc(NCCN3CCN(Cc4ccccc4)CC3)cc2)C/C1=C\c1ccc(F)c(F)c1` (stereo not drawn) [JCS087, 4-((2-(4-benzylpiperazin-1-yl)ethyl)amino)-N-(3,5-bis((E)-3,4-difluorobenzylidene)-4-oxocyclohexyl)benzamide], for which, in experiment [2], the “PARP1-trapping potency relative to JC099 (PARP1 in the chromatin-bound fraction)” value was “higher potency in PARP1-trapping”.
